One may read the Ki as the dissociation constant of the complex between target and ligand, obtained from inhibition or displacement. A low value points to higher affinity. For orientation: inhibition means the percentage by which the read-out fell short of the control.

The text below walks through data of publication PMC3602154 (PLoS ONE, 2013).

SMILES strings stand for the structures. Where only a bound is given, the exact number is not on record here.

One test deals with D3 (Homo sapiens, UniProt P35462). Put plainly: PDSP radioligand binding, dopamine receptor D3. The text has this: (§1) [17] and http://pdsp.med.unc.edu/UNC-CH%20Protocol%20Book.pdf.
A further test addresses H4 (Homo sapiens, UniProt Q9H3N8). In words: PDSP radioligand binding, histamine receptor H4.
Source text: as §1

Another test concerns the target A3B2 (Rattus norvegicus, UniProt P04757+P12390). In words: PDSP radioligand binding, nicotinic receptor α3 ß2.
Source text: as §1

The target in the next test is T1, 5-HT3 (Homo sapiens, UniProt P46098).
T1 sequence (P46098 24-478): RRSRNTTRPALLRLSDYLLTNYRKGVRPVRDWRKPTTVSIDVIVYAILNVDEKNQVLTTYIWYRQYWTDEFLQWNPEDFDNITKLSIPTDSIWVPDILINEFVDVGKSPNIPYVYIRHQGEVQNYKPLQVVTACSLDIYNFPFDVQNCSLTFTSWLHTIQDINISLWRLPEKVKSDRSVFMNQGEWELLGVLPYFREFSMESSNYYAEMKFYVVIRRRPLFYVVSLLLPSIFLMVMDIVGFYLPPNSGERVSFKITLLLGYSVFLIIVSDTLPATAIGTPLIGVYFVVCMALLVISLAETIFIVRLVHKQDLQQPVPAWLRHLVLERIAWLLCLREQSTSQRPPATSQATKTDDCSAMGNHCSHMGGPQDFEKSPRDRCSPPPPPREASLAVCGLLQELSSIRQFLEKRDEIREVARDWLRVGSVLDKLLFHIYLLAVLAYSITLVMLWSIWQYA
In words: PDSP radioligand binding, serotonin receptor 5-HT3.
Source text: as §1

The target of the next test is T2, Alpha1A (Homo sapiens, UniProt P35348).
T2 sequence (P35348 1-466): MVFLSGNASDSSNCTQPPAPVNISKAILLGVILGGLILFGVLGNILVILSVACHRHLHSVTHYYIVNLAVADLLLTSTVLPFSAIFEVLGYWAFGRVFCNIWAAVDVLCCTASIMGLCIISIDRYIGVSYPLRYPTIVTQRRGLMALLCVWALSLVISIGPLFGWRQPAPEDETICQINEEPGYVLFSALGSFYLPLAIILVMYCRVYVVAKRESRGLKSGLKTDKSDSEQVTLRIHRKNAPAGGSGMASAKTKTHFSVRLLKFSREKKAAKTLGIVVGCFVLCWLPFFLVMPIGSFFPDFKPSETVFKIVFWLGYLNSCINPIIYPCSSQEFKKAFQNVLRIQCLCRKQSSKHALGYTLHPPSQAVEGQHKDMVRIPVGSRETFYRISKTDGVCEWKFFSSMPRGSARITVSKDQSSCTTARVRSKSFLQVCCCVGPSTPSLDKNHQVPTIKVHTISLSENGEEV
Put plainly: PDSP radioligand binding, adrenoceptor α1A.
Source text: as §1

A further test has as its target Beta3 (Homo sapiens, UniProt P13945). In words: PDSP radioligand binding, adrenoceptor ß3.
Source text: as §1

The next test deals with D2 (Homo sapiens, UniProt P14416). Put plainly: PDSP radioligand binding, dopamine receptor D2.
Source text: as §1

In a further test the target is 5-HT2B (Homo sapiens, UniProt P41595). Put plainly: PDSP radioligand binding, serotonin receptor 5-HT2B.
Source text: as §1

In a further test the target is H2 (Homo sapiens, UniProt P25021). Put plainly: PDSP radioligand binding, histamine receptor H2.
Source text: as §1

The next test has as its target T3, M4 (Homo sapiens, UniProt P08173).
T3 sequence (P08173 1-479): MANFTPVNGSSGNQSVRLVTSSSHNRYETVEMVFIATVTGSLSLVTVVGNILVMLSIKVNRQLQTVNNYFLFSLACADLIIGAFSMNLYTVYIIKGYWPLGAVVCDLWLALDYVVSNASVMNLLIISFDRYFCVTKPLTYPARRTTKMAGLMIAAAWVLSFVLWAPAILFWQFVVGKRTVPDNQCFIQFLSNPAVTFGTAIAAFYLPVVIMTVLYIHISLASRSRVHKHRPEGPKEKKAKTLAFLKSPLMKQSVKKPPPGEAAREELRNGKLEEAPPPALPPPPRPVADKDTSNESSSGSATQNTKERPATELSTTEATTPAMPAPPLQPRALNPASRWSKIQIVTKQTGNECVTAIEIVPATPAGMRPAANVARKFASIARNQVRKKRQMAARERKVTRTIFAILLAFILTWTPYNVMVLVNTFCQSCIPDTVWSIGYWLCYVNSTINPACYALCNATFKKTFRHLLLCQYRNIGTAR
In words: PDSP radioligand binding, muscarinic receptor M4.
Source text: as §1

A further test has as its target hDAT (Homo sapiens, UniProt Q01959). In words: PDSP radioligand binding, dopamine transporter.
Source text: as §1

The target in another test is A4B2 (Rattus norvegicus, UniProt P09483+P12390). Put plainly: PDSP nicotinic receptor A4B2**. It counts as binding.
Source text: as §1

For a further test, the target named is CB1 (Homo sapiens, UniProt P21554). In words: PDSP radioligand binding, cannabinoid CB-1.
Source text: as §1

The next test deals with Sigma1 (Homo sapiens, UniProt Q99720). In words: PDSP radioligand binding, Sigma1.
Source text: as §1

For another test, the target named is BZP Rat Brain Site. In words: PDSP radioligand binding, benzodiazepine site on GABA-A. Particulars: Table S1; unit inferred.
Source text: as §1

The next test deals with Beta2 (Homo sapiens, UniProt P07550). In words: PDSP radioligand binding, adrenoceptor ß2.
Source text: as §1

The next test has as its target 5-HT6 (Homo sapiens, UniProt P50406). In words: PDSP radioligand binding, serotonin receptor 5-HT6.
Source text: as §1

In the next test the target is D5 (Homo sapiens, UniProt P21918). In words: PDSP radioligand binding, dopamine receptor D5.
Source text: as §1

In a further test the target is T4, Alpha1B (Homo sapiens, UniProt P35368).
T4 sequence (P35368 1-520): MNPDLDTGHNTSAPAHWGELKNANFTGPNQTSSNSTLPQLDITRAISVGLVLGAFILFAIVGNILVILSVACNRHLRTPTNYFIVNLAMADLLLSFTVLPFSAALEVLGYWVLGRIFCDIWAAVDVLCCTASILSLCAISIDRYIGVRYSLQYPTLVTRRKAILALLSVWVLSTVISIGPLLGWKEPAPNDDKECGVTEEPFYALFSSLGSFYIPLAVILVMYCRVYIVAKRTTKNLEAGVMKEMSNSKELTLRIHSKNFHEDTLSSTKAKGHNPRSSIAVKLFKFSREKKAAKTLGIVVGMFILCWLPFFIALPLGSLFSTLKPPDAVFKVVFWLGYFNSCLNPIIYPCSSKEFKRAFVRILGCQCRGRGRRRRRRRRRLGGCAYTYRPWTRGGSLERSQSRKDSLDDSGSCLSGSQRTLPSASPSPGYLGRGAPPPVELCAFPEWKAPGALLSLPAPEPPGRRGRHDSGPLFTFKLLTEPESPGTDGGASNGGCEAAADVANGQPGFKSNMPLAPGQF
Put plainly: PDSP radioligand binding, adrenoceptor α1B.
Source text: as §1

Chain of H4 (Q9H3N8 whole entry): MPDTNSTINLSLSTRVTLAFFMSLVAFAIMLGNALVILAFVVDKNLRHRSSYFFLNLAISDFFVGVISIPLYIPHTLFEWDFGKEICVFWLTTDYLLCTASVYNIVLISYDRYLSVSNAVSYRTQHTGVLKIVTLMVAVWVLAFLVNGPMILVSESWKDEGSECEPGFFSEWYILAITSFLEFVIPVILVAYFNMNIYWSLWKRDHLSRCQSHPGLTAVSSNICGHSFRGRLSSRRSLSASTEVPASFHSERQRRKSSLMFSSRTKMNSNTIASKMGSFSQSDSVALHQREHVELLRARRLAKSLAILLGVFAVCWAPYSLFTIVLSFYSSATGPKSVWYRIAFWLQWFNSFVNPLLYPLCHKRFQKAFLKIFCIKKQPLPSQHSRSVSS
Chain of A3B2 (P04757 26-499): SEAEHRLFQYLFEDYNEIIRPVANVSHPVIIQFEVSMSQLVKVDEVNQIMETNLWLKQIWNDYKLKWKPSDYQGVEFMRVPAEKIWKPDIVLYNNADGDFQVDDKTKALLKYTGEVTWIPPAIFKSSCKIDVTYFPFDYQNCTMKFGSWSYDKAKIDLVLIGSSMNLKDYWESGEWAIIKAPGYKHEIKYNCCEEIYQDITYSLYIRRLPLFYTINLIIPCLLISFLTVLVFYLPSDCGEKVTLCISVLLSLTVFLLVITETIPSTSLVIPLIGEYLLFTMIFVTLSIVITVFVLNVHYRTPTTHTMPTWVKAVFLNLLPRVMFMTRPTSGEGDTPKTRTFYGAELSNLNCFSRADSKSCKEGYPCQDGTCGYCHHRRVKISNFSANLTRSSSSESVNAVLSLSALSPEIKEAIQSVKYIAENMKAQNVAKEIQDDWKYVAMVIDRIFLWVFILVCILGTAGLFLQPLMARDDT
Chain of A3B2 (P12390 25-500): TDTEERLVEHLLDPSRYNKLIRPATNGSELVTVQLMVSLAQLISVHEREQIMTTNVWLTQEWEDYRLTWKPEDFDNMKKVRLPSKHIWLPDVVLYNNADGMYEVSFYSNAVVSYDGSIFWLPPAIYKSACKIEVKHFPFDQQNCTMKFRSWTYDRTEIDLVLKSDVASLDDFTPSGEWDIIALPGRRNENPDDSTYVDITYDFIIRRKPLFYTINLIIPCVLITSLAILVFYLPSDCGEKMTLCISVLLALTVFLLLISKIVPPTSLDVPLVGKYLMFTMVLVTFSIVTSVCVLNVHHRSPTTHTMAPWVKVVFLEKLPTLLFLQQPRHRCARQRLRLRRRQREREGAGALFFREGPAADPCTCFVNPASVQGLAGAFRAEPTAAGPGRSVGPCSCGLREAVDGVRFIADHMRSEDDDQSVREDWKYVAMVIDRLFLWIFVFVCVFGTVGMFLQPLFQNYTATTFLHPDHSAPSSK
Chain of H2 (P25021 whole entry): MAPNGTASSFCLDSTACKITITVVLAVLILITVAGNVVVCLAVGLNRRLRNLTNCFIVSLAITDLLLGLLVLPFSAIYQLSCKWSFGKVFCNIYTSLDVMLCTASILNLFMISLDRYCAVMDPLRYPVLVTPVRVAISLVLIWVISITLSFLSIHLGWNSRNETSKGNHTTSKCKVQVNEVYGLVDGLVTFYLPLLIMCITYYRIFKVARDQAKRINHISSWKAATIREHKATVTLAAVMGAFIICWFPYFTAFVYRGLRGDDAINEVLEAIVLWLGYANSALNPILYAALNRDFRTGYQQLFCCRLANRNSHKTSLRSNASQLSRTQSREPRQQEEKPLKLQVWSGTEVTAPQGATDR
Chain of hDAT (Q01959 whole entry): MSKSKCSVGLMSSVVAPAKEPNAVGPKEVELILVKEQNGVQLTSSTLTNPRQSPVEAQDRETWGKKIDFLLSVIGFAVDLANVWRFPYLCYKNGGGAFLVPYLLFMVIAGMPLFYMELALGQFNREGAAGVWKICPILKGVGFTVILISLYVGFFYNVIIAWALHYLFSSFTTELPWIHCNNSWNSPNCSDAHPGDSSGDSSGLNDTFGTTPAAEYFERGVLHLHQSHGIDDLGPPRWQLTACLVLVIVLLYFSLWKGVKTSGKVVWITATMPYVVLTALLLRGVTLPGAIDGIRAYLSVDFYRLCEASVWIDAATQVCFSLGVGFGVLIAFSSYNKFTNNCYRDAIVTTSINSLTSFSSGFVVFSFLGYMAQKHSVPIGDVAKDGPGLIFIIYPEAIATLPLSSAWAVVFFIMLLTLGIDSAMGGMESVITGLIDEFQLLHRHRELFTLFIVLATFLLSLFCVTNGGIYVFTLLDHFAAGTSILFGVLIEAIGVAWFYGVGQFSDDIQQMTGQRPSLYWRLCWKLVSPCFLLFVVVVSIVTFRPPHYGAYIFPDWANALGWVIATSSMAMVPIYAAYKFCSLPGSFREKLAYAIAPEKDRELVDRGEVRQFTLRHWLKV
Chain of 5-HT6 (P50406 whole entry, species assumed): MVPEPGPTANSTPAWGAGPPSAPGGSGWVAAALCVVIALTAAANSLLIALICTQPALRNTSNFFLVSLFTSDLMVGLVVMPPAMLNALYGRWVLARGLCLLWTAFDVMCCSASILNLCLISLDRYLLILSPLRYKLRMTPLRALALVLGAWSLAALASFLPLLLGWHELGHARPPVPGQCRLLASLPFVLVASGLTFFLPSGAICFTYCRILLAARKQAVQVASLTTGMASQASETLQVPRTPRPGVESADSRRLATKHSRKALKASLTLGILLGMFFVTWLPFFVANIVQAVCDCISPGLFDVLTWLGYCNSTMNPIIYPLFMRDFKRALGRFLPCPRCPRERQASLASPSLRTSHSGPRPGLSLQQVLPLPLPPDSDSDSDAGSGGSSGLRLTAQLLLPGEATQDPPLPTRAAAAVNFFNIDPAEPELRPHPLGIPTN
Chain of 5-HT2B (P41595 whole entry, species assumed): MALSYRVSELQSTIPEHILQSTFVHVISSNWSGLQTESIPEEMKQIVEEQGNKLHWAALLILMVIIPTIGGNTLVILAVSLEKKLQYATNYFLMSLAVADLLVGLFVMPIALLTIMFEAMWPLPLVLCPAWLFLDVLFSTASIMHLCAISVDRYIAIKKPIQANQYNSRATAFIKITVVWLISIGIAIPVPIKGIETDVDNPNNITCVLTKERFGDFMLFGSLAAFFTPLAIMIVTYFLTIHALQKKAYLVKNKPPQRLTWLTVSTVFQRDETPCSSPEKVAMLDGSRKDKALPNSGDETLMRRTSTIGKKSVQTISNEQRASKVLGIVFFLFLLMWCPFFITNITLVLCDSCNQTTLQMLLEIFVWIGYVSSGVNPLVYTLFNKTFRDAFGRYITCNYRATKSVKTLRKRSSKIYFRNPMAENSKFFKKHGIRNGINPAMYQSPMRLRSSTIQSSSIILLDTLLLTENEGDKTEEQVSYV
Chain of D5 (P21918 whole entry): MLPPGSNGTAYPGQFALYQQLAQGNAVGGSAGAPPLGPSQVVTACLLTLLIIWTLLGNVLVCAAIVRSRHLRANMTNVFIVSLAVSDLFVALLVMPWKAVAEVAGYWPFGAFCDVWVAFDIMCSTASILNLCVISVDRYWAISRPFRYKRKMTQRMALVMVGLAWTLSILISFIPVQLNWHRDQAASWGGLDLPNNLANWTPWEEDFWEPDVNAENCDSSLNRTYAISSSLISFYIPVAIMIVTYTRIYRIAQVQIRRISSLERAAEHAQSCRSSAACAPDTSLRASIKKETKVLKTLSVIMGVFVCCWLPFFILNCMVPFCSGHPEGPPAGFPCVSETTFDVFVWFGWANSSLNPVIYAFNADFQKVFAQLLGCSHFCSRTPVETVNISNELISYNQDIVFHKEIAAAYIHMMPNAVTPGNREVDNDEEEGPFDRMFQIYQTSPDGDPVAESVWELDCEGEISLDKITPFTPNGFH
Chain of Beta3 (P13945 whole entry): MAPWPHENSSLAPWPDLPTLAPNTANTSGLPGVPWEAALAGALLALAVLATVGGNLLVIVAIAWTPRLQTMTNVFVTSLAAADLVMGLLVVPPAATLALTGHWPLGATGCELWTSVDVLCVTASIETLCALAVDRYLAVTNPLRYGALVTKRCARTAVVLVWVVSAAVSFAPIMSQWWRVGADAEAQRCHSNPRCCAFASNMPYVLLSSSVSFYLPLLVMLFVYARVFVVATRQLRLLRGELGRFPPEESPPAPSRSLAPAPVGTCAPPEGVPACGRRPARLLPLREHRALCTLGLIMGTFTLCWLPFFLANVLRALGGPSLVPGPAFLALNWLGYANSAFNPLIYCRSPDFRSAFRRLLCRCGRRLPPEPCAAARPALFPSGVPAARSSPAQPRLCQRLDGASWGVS
Chain of Beta2 (P07550 whole entry): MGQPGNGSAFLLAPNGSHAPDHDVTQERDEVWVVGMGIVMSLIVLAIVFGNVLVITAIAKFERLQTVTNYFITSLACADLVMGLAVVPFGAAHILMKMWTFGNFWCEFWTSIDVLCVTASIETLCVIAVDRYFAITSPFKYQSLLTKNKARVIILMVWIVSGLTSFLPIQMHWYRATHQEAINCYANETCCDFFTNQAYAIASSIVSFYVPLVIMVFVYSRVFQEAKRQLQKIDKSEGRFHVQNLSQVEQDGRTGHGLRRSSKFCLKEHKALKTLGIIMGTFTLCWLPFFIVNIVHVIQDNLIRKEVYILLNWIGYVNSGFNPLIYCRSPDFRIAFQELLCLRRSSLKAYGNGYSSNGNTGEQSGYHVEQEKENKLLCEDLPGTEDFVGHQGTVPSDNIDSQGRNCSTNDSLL
Chain of D3 (P35462 whole entry): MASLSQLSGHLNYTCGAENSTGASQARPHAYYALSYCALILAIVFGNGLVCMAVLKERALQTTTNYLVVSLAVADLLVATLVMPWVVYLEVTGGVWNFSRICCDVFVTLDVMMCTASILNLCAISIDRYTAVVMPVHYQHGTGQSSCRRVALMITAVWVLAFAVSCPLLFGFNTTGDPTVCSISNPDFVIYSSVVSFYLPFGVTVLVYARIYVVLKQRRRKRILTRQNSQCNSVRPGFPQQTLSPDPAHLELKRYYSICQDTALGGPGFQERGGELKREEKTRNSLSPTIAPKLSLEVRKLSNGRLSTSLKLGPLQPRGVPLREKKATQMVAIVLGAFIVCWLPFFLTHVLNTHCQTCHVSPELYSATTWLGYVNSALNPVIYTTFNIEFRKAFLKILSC

In the case of `CCNC1(c2cccc(OC)c2)CCCCC1=O` (racemic) [Methoxetamine, (RS)-2-(ethylamino)-2-(3-methoxyphenyl)cyclohexanone], the Ki on D3, at H4, at A3B2, at 5-HT3, on Alpha1A and at Beta3 was over 10 µM throughout. Moreover, the Ki on D2, at 5-HT2B, on H2, on M4, on hDAT and on A4B2 was over 10 µM each time. Further, the inhibition constant Ki on CB1, at Sigma1, at BZP Rat Brain Site, at Beta2, at 5-HT6 and on D5 was over 10 µM each time. Further, the Ki on Alpha1B was over 10 µM. Also, the inhibition at 10 µM at Sigma1 (10 µM, quadruplicate, read-out: Sigma1 Primary Screen inhibition of binding) is under 50%.

As for `COc1cccc(C2(N3CCCCC3)CCCCC2)c1` [3-MeO-PCP, 1-[1-(3-methoxyphenyl)cyclohexyl]piperidine], the Ki at D3, on H4, on A3B2, on 5-HT3, at Alpha1A and at Beta3 was over 10 µM throughout. Moreover, the Ki at D2 is over 10 µM; at 5-HT2B it was over 10 µM; at H2 it was 2.1 µM; on M4 it was over 10 µM; on hDAT, 0.743 µM; at A4B2, over 10 µM. Also, the inhibition constant (Ki) on CB1 was over 10 µM; on Sigma1 it was 0.042 µM; on BZP Rat Brain Site it was over 10 µM; on Beta2, over 10 µM; at 5-HT6, over 10 µM; on D5 it was over 10 µM. For the same compound, the Ki on Alpha1B is over 10 µM.

`COc1ccc(C2(N3CCCCC3)CCCCC2)cc1` [4-MeO-PCP, 1-[1-(4-methoxyphenyl)cyclohexyl]piperidine]: the Ki at D3, on H4, on A3B2, at 5-HT3, at Alpha1A and at Beta3 was over 10 µM in each case. In addition, the inhibition constant Ki at D2, at 5-HT2B, at H2, at M4, on hDAT and at A4B2 was over 10 µM throughout. The Ki at CB1 was over 10 µM; at Sigma1 it was 0.296 µM; on BZP Rat Brain Site it was over 10 µM; on Beta2 it was over 10 µM; on 5-HT6 it was over 10 µM; on D5, over 10 µM. The compound also showed a Ki on Alpha1B of over 10 µM.
